Earlier results on one substance are cited in patent US7740874B2, “Method of making a lanolin free absorption base” (Quintessa Corporation, priority 2002, dated 2010).

For this series the following is noted: hydrophilic-lipophilic balance.

On to methyl glucose dioleate [emulsifier], for which the HLB is recorded as 5.
